This note sets out measurements from patent publication US20220235043A1, “SUBSTITUTED SULFONAMIDE PYRROLOPYRIDINES AS JAK INHIBITORS” (ACLARIS THERAPEUTICS, INC., priority 2019, published 2022).

The target of one assay is T1, JAK1 (Homo sapiens, UniProt P23458).
T1 construct: purchased Thermo Fisher Scientific (SelectScreen service)
The assay is described as follows: JAK1 enzyme activity assay (Thermo Fisher Selectscreen, Z-lyte). The format is biochemical. To be noted: read-out: JAK1 Inhibition IC50. In outline:
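Z-lyte FRET kinase assay with 21.2-91.5 ng JAK1 and 2 μM Tyr 06 peptide in 50 mM HEPES pH 7.0, 10 mM MgCl2, 1 h reaction before development reagent. Background without enzyme, uninhibited signal with 2% DMSO vehicle; 11-point dose-response, IC50 from 4-parameter logistic fit of emission ratio.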

The target in a further assay is T2, JAK3 (a.a. 781-1124) (Homo sapiens, UniProt P52333).
T2 construct: JAK3 (a.a. 781-1124, ThermoFisher); purchased ThermoFisher
T2 sequence (P52333 781-1124): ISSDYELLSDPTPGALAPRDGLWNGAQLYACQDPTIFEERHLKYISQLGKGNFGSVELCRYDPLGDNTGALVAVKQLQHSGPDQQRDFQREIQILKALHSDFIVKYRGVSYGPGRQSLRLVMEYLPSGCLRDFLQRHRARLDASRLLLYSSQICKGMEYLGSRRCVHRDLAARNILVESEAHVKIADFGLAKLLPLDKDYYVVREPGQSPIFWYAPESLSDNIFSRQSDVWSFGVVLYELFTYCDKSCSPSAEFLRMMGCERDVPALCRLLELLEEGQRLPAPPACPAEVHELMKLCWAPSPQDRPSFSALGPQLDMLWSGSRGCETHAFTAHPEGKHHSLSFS
The assay is described as follows: JAK3 enzyme activity assay (SRCtide phosphorylation, Caliper). The format is biochemical. To be noted: 1 uM ATP; read-out: JAK3 Inhibition IC50. The gist of the method: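 Kinase reactions used 2.5 nM JAK3 (aa 781-1124), 1 μM FAM-SRCtide and 1 uM ATP in HEPES pH 7.5, MgCl2, BSA, Tween-20, 2% DMSO. Incubation was 40 min at room temperature, stopped with EDTA. Phospho/unphospho peptide separated by Caliper mobility shift; IC50 from 11-point 3-fold 4-parameter fits.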

The next assay addresses T3, Tyk-2 (Homo sapiens, UniProt P29597).
T3 construct: purchased Thermo Fisher Scientific (SelectScreen service)
As to the kind of experiment: Tyk-2 enzyme activity assay (Thermo Fisher Selectscreen, Z-lyte). It counts as biochemical. To be noted: read-out: Tyk-2 Inhibition IC50. The gist of the method: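 Z-lyte FRET assay with 3.75-15 ng TYK2 and 2 μM Tyr 03 peptide in 50 mM HEPES pH 7.0, 10 mM MgCl2, 1 mM EGTA, 0.01% BRIJ-35. Reaction ran one hour before development reagent was added. Compounds were tested in an 11-point dose-response; IC50 came from a 4-parameter logistic fit of emission ratio, normalised to no-enzyme and 2% DMSO vehicle controls.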

Assay [1] relates to IFNγ stimulated STAT1 phosphorylation on Tyr701 (JAK1/2). The assay is described as follows: JAK1/2 cellular target modulation: IFNγ stimulated phospho-STAT1 in human PBMC. It counts as cell-based. Conditions: IFNγ 10 ng/ml, read-out: Infγ-STAT1 IC50. The gist of the method:
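Thawed human PBMC (200,000/well) preincubated with compound 1 h at 37°C, then stimulated with IL-12 1.7 ng/ml for 25 min, IFNγ 10 ng/ml for 10 min, or IL-2 25 ng/ml for 5 min. Lysate phospho-STAT4 Tyr693 and phospho-STAT5 Tyr694 read by MSD; phospho-STAT1 Tyr701 by sandwich ELISA.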

A value given as a limit tells only on which side of the number the result lay.

T1 sequence (P23458 whole entry): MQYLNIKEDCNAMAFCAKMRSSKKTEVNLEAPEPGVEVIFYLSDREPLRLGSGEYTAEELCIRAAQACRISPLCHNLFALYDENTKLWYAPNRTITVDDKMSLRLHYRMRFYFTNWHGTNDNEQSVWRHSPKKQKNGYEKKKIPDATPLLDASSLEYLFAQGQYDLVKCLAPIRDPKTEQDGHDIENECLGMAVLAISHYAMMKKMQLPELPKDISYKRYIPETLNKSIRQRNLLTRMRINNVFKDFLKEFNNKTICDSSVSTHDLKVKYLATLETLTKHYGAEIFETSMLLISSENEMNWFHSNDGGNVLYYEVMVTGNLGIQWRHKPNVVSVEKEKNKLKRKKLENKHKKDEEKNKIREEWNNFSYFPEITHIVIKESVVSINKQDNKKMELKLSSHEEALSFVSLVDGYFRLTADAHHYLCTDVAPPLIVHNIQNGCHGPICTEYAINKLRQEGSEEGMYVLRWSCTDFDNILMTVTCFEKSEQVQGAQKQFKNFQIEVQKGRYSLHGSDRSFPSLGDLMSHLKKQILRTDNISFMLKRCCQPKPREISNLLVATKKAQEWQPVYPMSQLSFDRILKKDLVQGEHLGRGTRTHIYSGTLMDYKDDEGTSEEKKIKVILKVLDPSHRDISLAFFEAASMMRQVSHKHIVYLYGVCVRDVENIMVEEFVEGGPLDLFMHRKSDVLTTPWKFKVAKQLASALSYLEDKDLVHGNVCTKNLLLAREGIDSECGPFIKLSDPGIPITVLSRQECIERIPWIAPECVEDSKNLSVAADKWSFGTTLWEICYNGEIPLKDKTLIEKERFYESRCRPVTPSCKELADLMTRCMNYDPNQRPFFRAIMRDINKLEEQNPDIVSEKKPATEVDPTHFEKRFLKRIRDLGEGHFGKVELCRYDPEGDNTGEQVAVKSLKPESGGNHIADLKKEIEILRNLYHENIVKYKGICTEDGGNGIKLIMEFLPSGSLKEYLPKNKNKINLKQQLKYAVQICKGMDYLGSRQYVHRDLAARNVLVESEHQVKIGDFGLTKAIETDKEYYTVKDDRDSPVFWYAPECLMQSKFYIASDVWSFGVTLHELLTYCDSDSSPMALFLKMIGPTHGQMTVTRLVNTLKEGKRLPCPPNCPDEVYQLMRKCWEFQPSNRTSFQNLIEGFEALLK
T3 sequence (P29597 whole entry): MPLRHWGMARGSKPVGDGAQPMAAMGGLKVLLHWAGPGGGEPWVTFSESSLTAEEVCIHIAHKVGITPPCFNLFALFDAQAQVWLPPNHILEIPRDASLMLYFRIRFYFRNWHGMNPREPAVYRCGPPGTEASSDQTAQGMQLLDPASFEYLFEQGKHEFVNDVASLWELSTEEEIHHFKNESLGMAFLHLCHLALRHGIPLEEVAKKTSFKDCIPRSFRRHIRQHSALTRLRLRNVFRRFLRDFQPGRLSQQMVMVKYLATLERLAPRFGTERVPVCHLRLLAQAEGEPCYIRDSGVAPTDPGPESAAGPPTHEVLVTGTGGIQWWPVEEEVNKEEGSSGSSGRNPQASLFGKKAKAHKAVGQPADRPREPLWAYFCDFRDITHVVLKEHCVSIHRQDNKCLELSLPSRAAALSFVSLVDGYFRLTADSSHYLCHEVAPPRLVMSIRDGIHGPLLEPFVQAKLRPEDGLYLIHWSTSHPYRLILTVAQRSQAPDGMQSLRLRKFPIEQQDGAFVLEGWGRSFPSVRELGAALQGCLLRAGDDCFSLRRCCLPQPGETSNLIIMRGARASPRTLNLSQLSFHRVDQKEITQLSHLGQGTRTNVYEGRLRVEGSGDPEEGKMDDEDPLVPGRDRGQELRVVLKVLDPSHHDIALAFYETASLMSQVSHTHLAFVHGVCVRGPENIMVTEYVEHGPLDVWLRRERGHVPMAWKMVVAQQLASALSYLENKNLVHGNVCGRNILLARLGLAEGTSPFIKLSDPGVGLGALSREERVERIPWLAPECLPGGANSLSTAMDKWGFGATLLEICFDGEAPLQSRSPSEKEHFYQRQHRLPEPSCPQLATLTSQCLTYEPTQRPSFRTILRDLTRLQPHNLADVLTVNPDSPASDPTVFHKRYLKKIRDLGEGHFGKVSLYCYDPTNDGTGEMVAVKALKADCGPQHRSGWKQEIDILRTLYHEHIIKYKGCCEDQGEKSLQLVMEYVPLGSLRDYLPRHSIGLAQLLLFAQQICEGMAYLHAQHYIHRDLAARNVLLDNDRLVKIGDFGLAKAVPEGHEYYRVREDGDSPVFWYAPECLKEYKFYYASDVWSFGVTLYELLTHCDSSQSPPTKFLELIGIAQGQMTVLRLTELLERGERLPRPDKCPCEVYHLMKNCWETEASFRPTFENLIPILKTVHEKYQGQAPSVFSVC

Take `Cc1nnc(-c2cnc3[nH]ccc3c2N[C@H]2C[C@@H](NS(=O)(=O)c3cccc(C#N)c3)C2)s1` [Example 75, 3-cyano-N-((1s,3s)-3-((5-(5-methyl-1,3,4-thiadiazol-2-yl)-1H-pyrrolo[2,3-b]pyridin-4-yl)amino)cyclobutyl)benzenesulfonamide]: the IC50 on JAK1 is no more than 10 nM; at JAK3 (a.a. 781-1124), 10 to 100 nM; on Tyk-2, no more than 10 nM; in assay [1], 100 to 1000 nM.
